Test results as given in patent US20250051307A1, “SALT OF 3,4-DIHYDROISOQUINOLINE COMPOUND AND USE THEREOF” (CSPC ZHONGQI PHARMACEUTICAL TECHNOLOGY(SHIJIAZHUANG) CO., …, priority 2021, published 2025).
pIC50: −log10 of the molar value. Where two headings read alike, the source gives them in different places. Marks after values point to notes of the source that are not given here. Values belong to the molecule of their own block, whether it stands above or below them.

Key:
[1] = Solubility determination in water and biological media; type: physicochemical; conditions: for solubility at 24 h: thermodynamic from solid, 37° C., solubility is in free state; for Solubility compared with the free base sample: water and FassIF media, vs Preparation Example 1
Source text: • FaSSIF: human fasted state simulated intestinal fluid; FeSSIF: human fed state simulated intestinal fluid; SGF: human fasted state simulated gastric fluid.

[2] = Solid stability of crystal forms under different humidity conditions (XRPD); type: physicochemical; conditions: 7 days
Source text: (§1) The samples were subjected to X-ray powder diffraction to investigate the stability of the samples under different conditions, and the results are shown in the following table.

[3] = Solid stability of crystal forms at high temperature (XRPD); type: physicochemical; conditions: 60° C., sealed, 7 days
Source text: as §1

[4] = tested on: human acute monocytic leukemia cell line MV4-11; assay: MV4-11 MTT cell growth inhibition; type: cell-based
Source text: The complete medium required for the culture of human acute monocytic leukemia cell line MV4-11 (Shanghai Cell Bank) for experiment was IMDM (CatNO. 12440-053, gibco) supplemented with 10% FBS (Cat NO. SA311.02, cellmax). […] The experiment reagents included dimethyl sulfoxide (Tianjin Kemiou Chemical Reagent Co., Ltd.) and MTT (THIAZOLYL BLUE TETRAZOLIUM BROMIDE, CAS. NO. 298-93-1, VWR). The control compound GSK3326595 for experiment was homemade or commercially available. The test compound was encapsulated and stored at 4° C.
Dimethyl sulfoxide was used as a vehicle to fully dissolve the test compound, thereby formulating a stock solution at a concentration of 5×10^−2 mol/L. The stock solution was stored at −20° C. With the complete medium as diluent, the test compound was subjected to gradient dilution to afford dilutions at different concentrations for standby application. In a 96-well culture plate, the suspension of the human acute monocytic leukemia cell line MV4-11 in the complete medium, at a volume of 100 μL/well (2×10^3 cells/well), was added. […] The OD value at 550 nm was measured with a microplate reader. […] The cell growth inhibition rate was calculated according to the following equation: […]
According to the inhibition rate at each concentration, the half maximal inhibitory concentration IC50 value was calculated using the SPSS software.

[5] = tested on: MV4-11 subcutaneous xenograft; assay: MV4-11 subcutaneous xenograft model, in vivo efficacy; set-up: species or system NOD-SCID mice; conditions: for Body Weight Change (%): 11 consecutive days; for d9 Tumor Volume (mm^3): 9th day after administration; for d0 Tumor Volume (mm^3): before grouping for administration, 100 mg/kg group; for RTV (d9): d9 tumor volume/d0 tumor volume; for Tumor Weight: end of experiment; for Tumor Weight / Tumor weight inhibition rate (%): 11 days; for Tumor weight inhibition rate (%): vs vehicle group
Procedure: Experimental female NOD-SCID mice, SPF grade, 4 to 5 weeks, were purchased from Beijing Vital River Laboratory Animal Technology Co., Ltd. The mice were intraperitoneally injected with cyclophosphamide at a dose of 100 mg/kg one day before cell inoculation. The human acute monocytic leukemia cell line MV4-11 (1×10^7/0.1 ml/mouse) was subcutaneously inoculated into forelimb axilla of mice to establish a subcutaneous xenograft model. When the tumor volumes reached about 110 mm^3 (10 days after inoculation), the mice were equally grouped according to the tumor volume, with 5 mice in each group, i.e., vehicle group (2% DMSO+98% (0.2 g/mL) hydroxypropyl-β-cyclodextrin) and test drug groups. For the test drug groups, the dose of administration was 100 mg/kg, the dosing volume was 10 mL/kg, the dosing frequency was BID, the tumor diameters were measured twice per week, and the data was recorded. The mice were administered for 11 consecutive days. When the experiment ended, the tumors were dissected and weighed.
The body weight growth rate, the tumor volume, and the tumor weight inhibition rate were calculated according to the following equations: body weight growth rate=X(Wi-W0)/XW0×100%, where Wi denoted the body weight of a mouse in each test drug group on the n^th day, and W0 denoted the body weight of a mouse in each test drug group at the beginning of administration; tumor volume (V)=½× a× b^2, where a and b denoted the long diameter and the short diameter of a tumor, respectively; d0 denoted before grouping for administration, d9 denoted the 9th day after administration, relative tumor volume (RTV)=d9 tumor volume/d0 tumor volume; tumor weight inhibition rate=(tumor weightvehicle group−tumor weighttest drug group)/tumor weightvehicle group×100%.

PRMT5 = PRMT5 (Homo sapiens (Human), UniProt O14744); assay: Radiometric assay for PRMT5 based on FlashPlate technology; type: biochemical
Chain of PRMT5 (O14744 whole entry): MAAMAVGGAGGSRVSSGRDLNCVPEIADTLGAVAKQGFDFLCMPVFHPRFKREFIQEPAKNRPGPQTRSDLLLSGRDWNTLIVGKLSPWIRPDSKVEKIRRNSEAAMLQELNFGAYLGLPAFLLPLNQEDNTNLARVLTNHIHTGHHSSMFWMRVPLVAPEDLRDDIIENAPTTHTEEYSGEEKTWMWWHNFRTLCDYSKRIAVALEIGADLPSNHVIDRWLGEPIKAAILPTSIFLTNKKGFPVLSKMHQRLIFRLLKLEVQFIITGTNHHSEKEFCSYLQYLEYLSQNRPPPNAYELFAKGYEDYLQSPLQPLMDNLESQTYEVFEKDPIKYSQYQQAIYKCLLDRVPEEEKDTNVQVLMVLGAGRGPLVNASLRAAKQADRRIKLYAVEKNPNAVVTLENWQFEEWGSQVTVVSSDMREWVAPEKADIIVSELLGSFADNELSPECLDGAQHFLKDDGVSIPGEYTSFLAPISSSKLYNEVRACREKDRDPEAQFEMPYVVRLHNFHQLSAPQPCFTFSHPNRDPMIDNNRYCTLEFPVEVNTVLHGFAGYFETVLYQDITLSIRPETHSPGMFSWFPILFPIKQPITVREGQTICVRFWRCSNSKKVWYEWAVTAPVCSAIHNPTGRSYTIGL
Chain of PRMT5 (Q9BQA1 whole entry partner): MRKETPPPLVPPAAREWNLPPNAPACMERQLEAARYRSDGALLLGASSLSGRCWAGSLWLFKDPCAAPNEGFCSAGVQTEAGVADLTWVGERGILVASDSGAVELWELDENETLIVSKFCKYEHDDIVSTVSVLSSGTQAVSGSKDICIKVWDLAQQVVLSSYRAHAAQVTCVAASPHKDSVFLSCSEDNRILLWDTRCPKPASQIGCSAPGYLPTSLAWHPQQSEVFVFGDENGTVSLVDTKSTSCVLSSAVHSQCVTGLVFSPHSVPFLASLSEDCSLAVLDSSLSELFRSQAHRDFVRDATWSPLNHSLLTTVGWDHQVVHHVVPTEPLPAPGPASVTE
Procedure: The radiometric assay for PRMT5 based on FlashPlate technology was adopted to determine IC50 of the test compound.
After dissolved in dimethyl sulfoxide respectively, the test compounds were added into an Echo Qualified 384-well plate and diluted to the desired concentrations. The diluted test compounds were transferred from the Echo Qualified 384-well plate to a 384-well reaction plate using an Echo 550 instrument, and dimethyl sulfoxide was transferred into both the control and blank wells. […] At a volume of 15 μL/well, the 1.67× enzyme solution was added into wells of the 384-well reaction plate. […] The reaction plate was centrifuged at 1000 rpm for 1 min, and incubated at room temperature for 15 min. […] From each well of the test plate, 25 μL was measured and transferred to Flashplate and left at room temperature for 1 h. Thereafter, the Flashplate was washed with 0.1% Tween-20 solution three times. Readings were taken with MicroBeta 2. The data was converted into the inhibition rate data. Inhibition rate=(conversion ratecontrol well−conversion ratecompound well)/(conversion ratecontrol well−conversion rateblank well)×100%.

[6] = Pharmacokinetic experiment in SD rats; type: in vivo; conditions: 25 mg/kg by gavage; for Cmax / Tmax / AUC(0-t): male, Sprague-Dawley (SD), rat, po, plasma; for AUC(0-t): read-out: AUC0-24h
Procedure: SD rats (male, 180 g to 200 g, Beijing Vital River Laboratory Animal Technology Co., Ltd.) were administered with the test compounds (solvent: 2% DMSO+98% (0.2 g/mL) hydroxypropyl-β-cyclodextrin, dosing volume: 5 mL/kg) by gavage. Blood was collected from the orbits of the rats at different points in time (0.25, 0.5, 1, 2, 4, 8, 24 h) after administration. The collected whole blood was anticoagulated with heparin sodium and centrifuged at 3000 g to obtain rat plasma samples, and methanol was added thereto to precipitate proteins. The drug concentration in rat plasma after administration was determined by HPLC-MS/MS method. A drug concentration-time curve was plotted and the pharmacokinetic parameters were calculated. Pharmacokinetic behaviors of the compounds after administration in rats were described by means of the parameter estimation of non-compartmental model based on statistical moment theory.

[7] = Long-term (three months) stability of Crystal Form I; type: physicochemical
[8] = FaSSIF (human fasted state simulated intestinal fluid), FassIF, read-out: 24 h solubility (mg/mL) FassIF
[9] = SGF (human fasted state simulated gastric fluid), simulated gastric fluid, SGF, read-out: 24 h solubility (mg/mL) SGF
[10] = water, read-out: 24 h solubility (mg/mL) Water
[11] = vs positive control drug GSK3326595

Crystal form after storage (XRPD) ([2]; 23° C./33% RH): Crystal Form II | Crystal form after storage (XRPD) ([2]; 25° C./60% RH): Crystal Form II | Crystal form under different humidity conditions (conclusion) [2]: unchanged | Crystal form after storage (XRPD) [3]: Crystal Form II
Compound: CON=C(C)C(=O)N1CCC(Nc2cc(C(=O)NC[C@H](O)CN3CCc4ccccc4C3)ncn2)CC1.O=C(O)C[C@H](O)C(=O)O [Example 2]

Crystal form after storage (XRPD) ([2]; 23° C./33% RH): Crystal Form IV | Crystal form after storage (XRPD) ([2]; 25° C./60% RH): Crystal Form IV | Crystal form under different humidity conditions (conclusion) [2]: unchanged
Compound: CON=C(C)C(=O)N1CCC(Nc2cc(C(=O)NC[C@H](O)CN3CCc4ccccc4C3)ncn2)CC1.O=C(O)C[C@H](O)C(=O)O [Example 4]

Crystal Form after storage ([7]; 3 months, long-term stability): Crystal Form I | Purity after storage ([7]; 3 months, long-term stability): 99.32% | Initial purity ([7]; before long-term storage): 99.43%
Compound: CON=C(C)C(=O)N1CCC(Nc2cc(C(=O)NC[C@H](O)CN3CCc4ccccc4C3)ncn2)CC1.O=C(O)C[C@H](O)C(=O)O [Example 1]

Crystal form after storage (XRPD) [3]: Crystal Form V
Compound: CON=C(C)C(=O)N1CCC(Nc2cc(C(=O)NC[C@H](O)CN3CCc4ccccc4C3)ncn2)CC1.O=C(O)C[C@H](O)C(=O)O [Example 5]

Crystal form after storage (XRPD) ([2]; 23° C./33% RH): Crystal Form III | Crystal form after storage (XRPD) ([2]; 25° C./60% RH): Crystal Form III | Crystal form under different humidity conditions (conclusion) [2]: unchanged
Compound: CON=C(C)C(=O)N1CCC(Nc2cc(C(=O)NC[C@H](O)CN3CCc4ccccc4C3)ncn2)CC1.O=C(O)C[C@H](O)C(=O)O [Example 3]

The remaining lines, values behind:

Compound: CON=C(C)C(=O)N1CCC(Nc2cc(C(=O)NC[C@H](O)CN3CCc4ccccc4C3)ncn2)CC1.O=C(O)C[C@H](O)C(=O)O [Example 7]
solubility at 24 h [1, 8]: > 4.7 mg/mL | solubility at 24 h [1, 9]: > 4.8 mg/mL | solubility at 24 h [1, 10]: > 4.9 mg/mL | Solubility compared with the free base sample [1]: significantly higher

Compound: CON=C(C)C(=O)N1CCC(Nc2cc(C(=O)NC[C@H](O)CN3CCc4ccccc4C3)ncn2)CC1.O=C(O)C(=O)O [Example 11]
solubility at 24 h [1, 8]: > 9.1 mg/mL | solubility at 24 h [1, 9]: > 9.2 mg/mL | solubility at 24 h [1, 10]: > 9.1 mg/mL | Solubility compared with the free base sample [1]: significantly higher

Compound: CON=C(C)C(=O)N1CCC(Nc2cc(C(=O)NC[C@H](O)CN3CCc4ccccc4C3)ncn2)CC1 [Compound of formula (A)]
Inhibitory activity at cell level compared with GSK3326595 [4, 11]: better inhibitory activities | Tumor-inhibitory activity in MV4-11 xenografts model ([5]; 100 mg/kg BID): significant tumor-inhibitory activity | Body Weight Change (%) ([5]; 100 mg/kg BID): −6.1% | d9 Tumor Volume (mm^3) ([5]; 100 mg/kg BID): 55.7 ± 19.7 ***## mm^3 | d0 Tumor Volume (mm^3) [5]: 165.3 ± 27.5 mm^3 | RTV (d9) ([5]; 100 mg/kg BID): 0.4 ± 0.1 | Tumor Weight ([5]; 100 mg/kg BID): 0.0648 ± 0.0267 g | Tumor weight inhibition rate (%) ([5]; 100 mg/kg BID): 91.1% | solubility at 24 h [1, 8]: 1.7 mg/mL | solubility at 24 h [1, 9]: > 4.4 mg/mL | solubility at 24 h [1, 10]: 0.39 mg/mL | pIC50 (PRMT5; PRMT5 5 nM, [3H]-SAM, 25° C. 60 min, read-out: Enzymology (IC50)): 7.51 | Inhibitory activity at enzyme level compared with GSK3326595 (PRMT5; [11]): better inhibitory activities | Absorption in rats compared with GSK3326595 [6]: better absorbed | Cmax [6]: 2370 ng/mL | Tmax [6]: 0.333 h | AUC(0-t) [6]: 4410 ng·h/mL

Compound: CC(=O)N1CCC(Nc2cc(C(=O)NC[C@H](O)CN3CCc4ccccc4C3)ncn2)CC1 [GSK3326595, reference compound]
pIC50 ([4]; Homo sapiens, MV4-11, 144 h, MTT on Day 6): 8.18 | Body Weight Change (%) ([5]; 100 mg/kg BID): −6.8% | d9 Tumor Volume (mm^3) ([5]; 100 mg/kg BID): 135 ± 43** mm^3 | d0 Tumor Volume (mm^3) [5]: 165.2 ± 23.1 mm^3 | RTV (d9) ([5]; 100 mg/kg BID): 0.8 ± 0.2 | Tumor Weight ([5]; 100 mg/kg BID): 0.1124 ± 0.0764 g | Tumor weight inhibition rate (%) ([5]; 100 mg/kg BID): 84.5% | Cmax [6]: 60.3 ng/mL | Tmax [6]: 2.67 h | AUC(0-t) [6]: 589 ng·h/mL
